Measured values taken from ChEMBL document CHEMBL1201862, “PubChem BioAssay data set” (2004).
Calls of active or inactive are those of the source.

tested on: not listed separately; assay: Luminescence Cell-Based Dose Confirmation HTS to Identify Activators of 5'UTR Stem-Loop Driven Alpha-Synuclein mRNA Translation in H4 Neuroglioblastoma Cells. [Related pubchem assays: 1829 (Project Summary), 1814 (Primary HTS)]; assay type: functional; settings: not given

| SMILES | EC50 |
| --- | --- |
| CC(=O)C1=NOC(CNc2ncc(C(F)(F)F)cc2Cl)C1 (centres undefined) | 15.7 µM (active) |
| CC(=O)N1c2ccc(S(=O)(=O)N3CCC(C(=O)NCc4ccccc4Cl)CC3)cc2CC1C (centres undefined) | > 120 µM (not active) |
| CCn1c(SCC(=O)Nc2ccc(C(C)=O)cc2)nc2nc3c(cc2c1=O)COC(C)(C)C3 | > 120 µM (not active) |
| CCOc1ccc(NC(=O)C(S)=NC2CCCCC2)cc1 | 61.6 µM (active) |
| O=C(NN=C1C2CC3CC1CC(Cl)(C3)C2)c1ccccn1 | > 120 µM (not active) |
| CC(C)CC1NC(=O)N(CC(=O)c2ccc3c(c2)OCCO3)C1=O (centres undefined) | 0.298 µM (active) |
| Cc1nn(CC(=O)c2ccccc2Cl)c(C)c1[N+](=O)[O-] | 38.2 µM (active) |
| CC1=NC(=O)C(N=Nc2cccc(O)c2)N1c1ccccc1 (centres undefined) | 15.5 µM (active) |
| CC(=O)N1CCc2cc(S(=O)(=O)NCCC(=O)Nc3ccc4c(c3)OCCO4)ccc21 | 17.4 µM (active) |
| Clc1ccc2c(c1)[C@H]1OCC[C@H]1[C@@H](c1ccco1)N2 | 19.9 µM (active) |
| COc1ccc(COc2cc(-c3cccc(OC)c3)nc3ccc(NC(=O)C(C)C)cc23)cc1 | > 120 µM (not active) |
| Cc1cccc(CCNc2nc3ccc(C)cc3n3cnnc23)c1 | 0.258 µM (active) |
| Cc1nn(C(=O)c2ccoc2C)c(N)c1-c1ccccc1 | 5.93 µM (active) |
| CCn1c(Cn2nnc(-c3ccccc3)n2)nnc1SCC(=O)Nc1ccc(C(C)=O)cc1 | > 120 µM (not active) |
| COc1cccc(-c2csc(NC(=O)Nc3ccccc3)n2)c1 | > 120 µM (not active) |
| NC(=NOC(=O)c1cccc([N+](=O)[O-])c1)c1cccnc1 | 3.61 µM (active) |
| CCOC(=O)c1c(C)n[nH]c1N/N=C/c1cccnc1 | > 120 µM (not active) |
| CC1(C)C2CC=C(/C=N/NC(=O)c3ccc(Cl)cc3)C1C2 (centres undefined) | > 120 µM (not active) |

target: T1, Heat shock factor protein 1 (Mus musculus, UniProt P38532); assay: inhibition of MG132-induced HSE-luciferase signal, confirmation, cell-based, NIH3T3, luminescence, dose retest (AID 2382); assay type: functional; settings: not given;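 further: NIH3T3 fibroblasts with HSF1-driven luciferase reporter stressed by proteasome inhibitor MG132; luminescence from HSF1-driven luciferase expression after 8 hours of MG132 stress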
T1 sequence (P38532 whole entry): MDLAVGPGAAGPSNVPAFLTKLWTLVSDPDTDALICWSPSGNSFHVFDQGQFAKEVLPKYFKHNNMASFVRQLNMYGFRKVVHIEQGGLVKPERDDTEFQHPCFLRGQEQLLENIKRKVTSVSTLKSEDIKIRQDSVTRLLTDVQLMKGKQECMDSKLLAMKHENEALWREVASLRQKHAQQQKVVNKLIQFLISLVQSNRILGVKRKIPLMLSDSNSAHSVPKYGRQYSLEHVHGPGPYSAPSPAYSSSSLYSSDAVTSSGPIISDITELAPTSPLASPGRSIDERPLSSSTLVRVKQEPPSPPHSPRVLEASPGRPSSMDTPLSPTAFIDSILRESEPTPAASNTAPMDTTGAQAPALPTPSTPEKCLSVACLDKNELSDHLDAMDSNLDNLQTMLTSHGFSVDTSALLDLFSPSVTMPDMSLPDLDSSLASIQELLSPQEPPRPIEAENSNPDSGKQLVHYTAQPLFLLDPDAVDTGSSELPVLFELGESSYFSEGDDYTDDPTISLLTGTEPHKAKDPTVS

| SMILES | EC50 |
| --- | --- |
| COc1cccc(-c2csc(NC(=O)Nc3ccccc3)n2)c1 | > 195 µM (not active) |

tested on: not listed separately; assay: Luminescence Cell-Based Dose Response HTS to Identify Activators of Luciferase Translation or Activity in H4 […] Cells. [Related pubchem assays: 1829 (Project Summary), 1814 (Primary HTS)]; assay type: functional; settings: not given

| SMILES | EC50 |
| --- | --- |
| CC(=O)C1=NOC(CNc2ncc(C(F)(F)F)cc2Cl)C1 (centres undefined) | 17 µM (active) |
| CC(=O)N1c2ccc(S(=O)(=O)N3CCC(C(=O)NCc4ccccc4Cl)CC3)cc2CC1C (centres undefined) | > 120 µM (not active) |
| CCn1c(SCC(=O)Nc2ccc(C(C)=O)cc2)nc2nc3c(cc2c1=O)COC(C)(C)C3 | 32.9 µM (active) |
| CCOc1ccc(NC(=O)C(S)=NC2CCCCC2)cc1 | 21.1 µM (active) |
| O=C(NN=C1C2CC3CC1CC(Cl)(C3)C2)c1ccccn1 | > 120 µM (not active) |
| CC(C)CC1NC(=O)N(CC(=O)c2ccc3c(c2)OCCO3)C1=O (centres undefined) | 1.48 µM (active) |
| Cc1nn(CC(=O)c2ccccc2Cl)c(C)c1[N+](=O)[O-] | 15.8 µM (active) |
| CC1=NC(=O)C(N=Nc2cccc(O)c2)N1c1ccccc1 (centres undefined) | 13.7 µM (active) |
| CC(=O)N1CCc2cc(S(=O)(=O)NCCC(=O)Nc3ccc4c(c3)OCCO4)ccc21 | 9.85 µM (active) |
| Clc1ccc2c(c1)[C@H]1OCC[C@H]1[C@@H](c1ccco1)N2 | 10.9 µM (active) |
| COc1ccc(COc2cc(-c3cccc(OC)c3)nc3ccc(NC(=O)C(C)C)cc23)cc1 | > 120 µM (not active) |
| Cc1cccc(CCNc2nc3ccc(C)cc3n3cnnc23)c1 | 33.2 µM (active) |
| Cc1nn(C(=O)c2ccoc2C)c(N)c1-c1ccccc1 | 26.9 µM (active) |
| CCn1c(Cn2nnc(-c3ccccc3)n2)nnc1SCC(=O)Nc1ccc(C(C)=O)cc1 | 71.4 µM (active) |
| COc1cccc(-c2csc(NC(=O)Nc3ccccc3)n2)c1 | 11.1 µM (active) |
| NC(=NOC(=O)c1cccc([N+](=O)[O-])c1)c1cccnc1 | 7.46 µM (inconclusive) |
| CCOC(=O)c1c(C)n[nH]c1N/N=C/c1cccnc1 | 14.7 µM (active) |
| CC1(C)C2CC=C(/C=N/NC(=O)c3ccc(Cl)cc3)C1C2 (centres undefined) | 12.4 µM (active) |

target: T1, Heat shock factor protein 1; assay: HSF1 potentiators in luciferase reporter cells, confirmation, cell-based, NIH3T3, luminescence, dose retest (AID 435004); assay type: functional; settings: not given;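 further: stress induced by proteasome inhibitor MG132 added 30 min after compound; luciferase reporter driven by HSF1 response element in NIH3T3 cells; actives raise luminescence as potentiators of the MG132 stress response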

| SMILES | EC50 |
| --- | --- |
| C=CCSC1=C(C#N)C(c2cccc(OC)c2)CC(=O)N1 (centres undefined) | > 260 µM (inactive) |
| CC(=O)c1ccc(N2CCN(C(=O)c3[nH]nc4ccccc34)CC2)cc1 | > 260 µM (inactive) |
| Cc1cc(C)n(-c2nc3ccccc3nc2N2CCN(C(=O)c3ccc(F)cc3)CC2)n1 | > 260 µM (inactive) |
| CCC1Oc2ccc(C)cc2N(Cc2cccc(C)c2)C1=O (centres undefined) | > 260 µM (inactive) |
| COc1ccc(NC(=O)C(NCC(C)C)c2ccccc2)cc1Cl (centres undefined) | > 260 µM (inactive) |
| CCCSc1nnc2n(-c3ccccc3OC)c(=O)c3c4c(sc3n12)CCC4 | > 260 µM (inactive) |
| S=C(c1cn(Cc2ccc(Br)cc2)c2ccccc12)N1CCOCC1 | > 260 µM (inactive) |
| Cc1nc(C(=N)NOC(=O)Cc2ccccc2)no1 | > 260 µM (inactive) |
| CN=C(S)NCCC(c1ccccc1)c1ccccc1 | > 260 µM (inactive) |
| CCOc1ccc(-n2c(=S)sc3c(O)nc(SCC(=O)NC(C)CC)nc32)cc1 (centres undefined) | > 260 µM (inactive) |
| C=CCn1c(C)cc(C(=O)CSc2nc(N)cc(N)n2)c1C | > 260 µM (inactive) |
| O=C(COc1ccccc1)NC(=S)Nc1cccc2cc(O)ccc12 | > 260 µM (inactive) |
| CCOC(=O)c1ccc(NC(=O)CCS(=O)(=O)c2ccc(Br)s2)cc1 | > 260 µM (inactive) |
| Cc1ccc(C(=O)NNC(=O)c2ccccc2-n2cccc2)cc1 | > 260 µM (inactive) |
| CC(=O)Nc1ccc(N2C(=O)C3C4CC(=O)C(c5ccccc54)C3C2=O)cc1 (centres undefined) | > 260 µM (inactive) |
| O=S(=O)(c1ccc(Cl)cc1)N1CCC2(CC1)OCCN2S(=O)(=O)c1cccs1 | 227 µM (active) |
| COc1ccc(OC)c(S(=O)(=O)Nc2ccccc2O)c1 | > 260 µM (inactive) |

tested on: not listed separately; assay: NIH-3T3 fibroblast cytotoxicity, dose response, cytotoxicity control, cell-based, fluorescence, Alamar Blue, secondary assay (AID 2327); assay type: functional; settings: not given;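 further: NIH-3T3 mouse fibroblasts cultured with fluconazole at 8 µg/mL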

| SMILES | EC50 |
| --- | --- |
| Cc1ccc2nsnc2c1NC(=O)COc1ccccc1F | > 150 µM (inconclusive) |
| Cc1ccc(-c2nc(-c3cccnc3)no2)c(C)c1 | > 150 µM (inactive) |

target: Cytochrome P450 2C9 (Homo sapiens, UniProt P11712); settings: not given
Sequence (P11712 whole entry): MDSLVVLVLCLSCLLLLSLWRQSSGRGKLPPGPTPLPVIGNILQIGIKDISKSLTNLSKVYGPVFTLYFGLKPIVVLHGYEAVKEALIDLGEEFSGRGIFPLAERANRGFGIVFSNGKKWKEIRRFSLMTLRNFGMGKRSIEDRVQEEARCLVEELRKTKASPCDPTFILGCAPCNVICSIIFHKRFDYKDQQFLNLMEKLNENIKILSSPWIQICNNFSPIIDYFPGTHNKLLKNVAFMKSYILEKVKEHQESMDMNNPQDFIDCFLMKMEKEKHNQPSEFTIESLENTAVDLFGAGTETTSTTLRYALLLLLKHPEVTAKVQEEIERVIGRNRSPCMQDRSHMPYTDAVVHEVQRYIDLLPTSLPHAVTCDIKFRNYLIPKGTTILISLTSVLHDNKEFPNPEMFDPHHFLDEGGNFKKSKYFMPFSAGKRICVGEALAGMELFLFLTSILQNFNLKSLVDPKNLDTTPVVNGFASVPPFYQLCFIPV

| SMILES | AC50 |
| --- | --- |
| CC(O)(CS(=O)(=O)c1ccccc1)C(=O)Nc1cccc(C(F)(F)F)c1 (centres undefined) | 35.5 µM (inconclusive) |
| COc1ccc(N2CCN(Cc3nc4c(c(=O)[nH]c(=O)n4C)n3CCCc3ccccc3)CC2)cc1 | 39.8 µM (inconclusive) |
| COc1ccc(Oc2ncc3nc(C)c(=O)n(-c4ccc(OC)cc4)c3n2)cc1 | 39.8 µM (inconclusive) |
| CC(O)(CS(=O)(=O)Cc1ccccc1Cl)C(=O)Nc1cccc(C(F)(F)F)c1 (centres undefined) | 11.2 µM (inconclusive) |
| COCCN=C(S)N1C2CCC1CC(NC(=O)NC13CC4CC(CC(C4)C1)C3)C2 (centres undefined) | 14.1 µM (inconclusive) |
| O=C(O)/C=C\c1c2ccc(=O)c(O)c-2oc2c(O)c(O)ccc12 | 7.94 µM (inconclusive) |
| COC(=O)C(CCSC)NC(=O)c1cccc([N+](=O)[O-])c1 (centres undefined) | 2 µM (inconclusive) |
| N#CCCn1c(=O)c(-c2cccc(C#N)c2)nc2cnc(Oc3cccc(Cl)c3)nc21 | 12.6 µM (inconclusive) |
| CC(C(=O)c1c[nH]c2ccccc12)N1CCSCC1 (centres undefined) | 31.6 µM (inconclusive) |
| O=C(O)CCc1ccc(-c2ccc(Cl)cc2)n1CCC(=O)O | 31.6 µM (inconclusive) |
| NS(=O)(=O)c1cc2c(cc1Cl)N=C(CSCc1ccccc1)NS2(=O)=O [BENZTHIAZIDE] | 3.98 µM (inconclusive) |
| Cc1cccc(N(C)C(=S)Oc2ccc3ccccc3c2)c1 [TOLNAFTATE] | 1.26 µM (inconclusive) |

target: Cytochrome P450 2C19 (Homo sapiens, UniProt P33261); assay: Cytochrome panel assay with activity outcomes. Panel member name: p450-cyp2c19 Compounds with AC50 equal or less than 10 uM are considered active; assay type: functional; settings: read-out: AC50
Sequence (P33261 whole entry): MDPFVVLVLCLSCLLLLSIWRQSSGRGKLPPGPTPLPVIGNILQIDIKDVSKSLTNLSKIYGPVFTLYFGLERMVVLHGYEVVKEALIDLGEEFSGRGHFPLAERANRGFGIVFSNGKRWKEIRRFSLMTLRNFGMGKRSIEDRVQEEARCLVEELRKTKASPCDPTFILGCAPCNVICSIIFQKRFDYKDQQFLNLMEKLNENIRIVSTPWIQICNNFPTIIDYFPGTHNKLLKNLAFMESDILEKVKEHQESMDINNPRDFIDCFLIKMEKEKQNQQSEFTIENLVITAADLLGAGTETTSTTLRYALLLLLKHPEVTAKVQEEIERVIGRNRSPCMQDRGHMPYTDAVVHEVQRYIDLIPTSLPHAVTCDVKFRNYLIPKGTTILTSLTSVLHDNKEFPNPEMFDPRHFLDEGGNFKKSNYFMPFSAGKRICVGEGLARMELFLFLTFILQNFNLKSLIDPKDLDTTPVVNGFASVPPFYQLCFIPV

| SMILES | AC50 |
| --- | --- |
| COc1ccc(N2CCN(Cc3nc4c(c(=O)[nH]c(=O)n4C)n3CCCc3ccccc3)CC2)cc1 | 28.2 µM (inconclusive) |
| COCCN=C(S)N1C2CCC1CC(NC(=O)NC13CC4CC(CC(C4)C1)C3)C2 (centres undefined) | 20 µM (inconclusive) |
| O=C(O)/C=C\c1c2ccc(=O)c(O)c-2oc2c(O)c(O)ccc12 | 3.16 µM (inconclusive) |

tested on: H4; assay: Luminescence Cell-Based Dose Response HTS to Identify Activators of 5'UTR Stem-Loop Driven Prion Protein mRNA Translation in H4 Neuroglioblastoma Cells. [Related pubchem assays: 1829 (Project Summary), 1814 (Primary HTS)]; assay type: functional; settings: Homo sapiens

| SMILES | EC50 |
| --- | --- |
| CC(=O)C1=NOC(CNc2ncc(C(F)(F)F)cc2Cl)C1 (centres undefined) | 16.2 µM (active) |
| CC(=O)N1c2ccc(S(=O)(=O)N3CCC(C(=O)NCc4ccccc4Cl)CC3)cc2CC1C (centres undefined) | > 120 µM (not active) |
| CCn1c(SCC(=O)Nc2ccc(C(C)=O)cc2)nc2nc3c(cc2c1=O)COC(C)(C)C3 | 12.8 µM (active) |
| CCOc1ccc(NC(=O)C(S)=NC2CCCCC2)cc1 | 11 µM (active) |
| O=C(NN=C1C2CC3CC1CC(Cl)(C3)C2)c1ccccn1 | > 120 µM (not active) |
| CC(C)CC1NC(=O)N(CC(=O)c2ccc3c(c2)OCCO3)C1=O (centres undefined) | 6.39 µM (active) |
| Cc1nn(CC(=O)c2ccccc2Cl)c(C)c1[N+](=O)[O-] | 25.4 µM (active) |
| CC1=NC(=O)C(N=Nc2cccc(O)c2)N1c1ccccc1 (centres undefined) | 20.2 µM (active) |
| CC(=O)N1CCc2cc(S(=O)(=O)NCCC(=O)Nc3ccc4c(c3)OCCO4)ccc21 | 25.6 µM (active) |
| Clc1ccc2c(c1)[C@H]1OCC[C@H]1[C@@H](c1ccco1)N2 | 9.48 µM (active) |
| COc1ccc(COc2cc(-c3cccc(OC)c3)nc3ccc(NC(=O)C(C)C)cc23)cc1 | > 120 µM (not active) |
| Cc1cccc(CCNc2nc3ccc(C)cc3n3cnnc23)c1 | 7.16 µM (active) |
| Cc1nn(C(=O)c2ccoc2C)c(N)c1-c1ccccc1 | 21.6 µM (active) |
| CCn1c(Cn2nnc(-c3ccccc3)n2)nnc1SCC(=O)Nc1ccc(C(C)=O)cc1 | 16.1 µM (active) |
| COc1cccc(-c2csc(NC(=O)Nc3ccccc3)n2)c1 | 18.9 µM (active) |
| NC(=NOC(=O)c1cccc([N+](=O)[O-])c1)c1cccnc1 | > 120 µM (not active) |
| CCOC(=O)c1c(C)n[nH]c1N/N=C/c1cccnc1 | > 120 µM (not active) |
| CC1(C)C2CC=C(/C=N/NC(=O)c3ccc(Cl)cc3)C1C2 (centres undefined) | > 120 µM (not active) |
